Earlier results in patent publication US20080241273A1, “MASTIC GUM COMPOSITION FOR USE AS A DIETARY SUPPLEMENT IN HUMANS AND ANIMALS” (INTACT ENTERPRISES, INC., priority 2005, published 2008).

Assays:
[1] = hydrochloric acid titrated to a pH between 6 and 7
[2] = healthy individuals, oral
[3] = type 1 and type 2 diabetes
[4] = infusion, patients with lowered ionized magnesium
[5] = 6 mg/kg daily orally for up to 60 days
[6] = oral, six weeks, daily dose of 15 mmol
[7] = dogs

**Q.** For magnesium citrate, which reprecipitation [1] is on record?
**A.** did not occur

**Q.** What about the “in vivo absorption (rise in urinary magnesium levels)” value [2] of the same compound?
**A.** absorbed to a much greater extent than the oxide

**Q.** Which blood sugar [3] does the source give for `O=S(=O)([O-])[O-].[O]=[V+2]` [vanadyl sulfate] here?
**A.** reduced

**Q.** What about the insulin sensitivity [3] of the same compound?
**A.** improved

**Q.** Which reprecipitation [1] does the source give for `[O]=[Mg]` [magnesium oxide] here?
**A.** did not occur

**Q.** With `[Mg+2]` [magnesium] as the compound, how does the “relief of acute migraine” value [4] read?
**A.** rapid and sustained relief

**Q.** What about the “serum concentrations of calcium, magnesium, parathyroid hormone, calcitriol, osteocalcin” value [5] of the same compound?
**A.** increased significantly

**Q.** For magnesium lactate citrate, which bioavailability [6] is on record?
**A.** satisfactory

**Q.** Which “bioavailability under decreased acidity” value [7] does the source give for `C[C@H](O)C(=O)[O-].C[C@H](O)C(=O)[O-].O.O.[Mg+2]` [magnesium L-lactate dihydrate] here?
**A.** did not impair
